Read-outs that look alike come from different tables or passages of the source.
What was measured:
[1] = biological target: T1, human TRPV1 receptor (hTRPV1) (Homo sapiens (Human), UniProt Q8NER1); assay: Capsaicin activation assay (FLIPR intracellular Ca2+); assay type: cell-based; settings: inhibition of capsaicin-induced intracellular Ca2+ increase, read-out: hTRPV1 cap IC50
In short: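 Antagonism measured as [Ca2+]i fluorescence on FLIPR Tetra: compounds given 3 min ahead of capsaicin, added as 200 nM (4×), to dye-loaded hTRPV1-HEK293 cells. Response taken as baseline-subtracted peak, normalized to the 50 nM capsaicin control; 12-point one-third-log titrations.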

[2] = biological target: T1, human TRPV1 receptor (hTRPV1); assay: Acid activation assay (pH 5.0, FLIPR intracellular Ca2+); assay type: cell-based; settings: 37.5 μM antagonist, percentage of the maximal pH 5.0-induced response remaining, read-out: hTRPV1 H+ (max % remain)
In short: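 Antagonism of acid-evoked Ca2+ influx measured by FLIPR Calcium-4 fluorescence after a pH 5.0 DPBS/MES stimulus, with compounds preincubated 3 min over 12 half-log concentrations. Cells: stable hTRPV1-expressing 1321N1 line, dye-loaded 90–120 min in the dark at 25 °C.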

[3] = Table 1, HEK293 cells expressing human TRPV1

T1 sequence (Q8NER1 whole entry): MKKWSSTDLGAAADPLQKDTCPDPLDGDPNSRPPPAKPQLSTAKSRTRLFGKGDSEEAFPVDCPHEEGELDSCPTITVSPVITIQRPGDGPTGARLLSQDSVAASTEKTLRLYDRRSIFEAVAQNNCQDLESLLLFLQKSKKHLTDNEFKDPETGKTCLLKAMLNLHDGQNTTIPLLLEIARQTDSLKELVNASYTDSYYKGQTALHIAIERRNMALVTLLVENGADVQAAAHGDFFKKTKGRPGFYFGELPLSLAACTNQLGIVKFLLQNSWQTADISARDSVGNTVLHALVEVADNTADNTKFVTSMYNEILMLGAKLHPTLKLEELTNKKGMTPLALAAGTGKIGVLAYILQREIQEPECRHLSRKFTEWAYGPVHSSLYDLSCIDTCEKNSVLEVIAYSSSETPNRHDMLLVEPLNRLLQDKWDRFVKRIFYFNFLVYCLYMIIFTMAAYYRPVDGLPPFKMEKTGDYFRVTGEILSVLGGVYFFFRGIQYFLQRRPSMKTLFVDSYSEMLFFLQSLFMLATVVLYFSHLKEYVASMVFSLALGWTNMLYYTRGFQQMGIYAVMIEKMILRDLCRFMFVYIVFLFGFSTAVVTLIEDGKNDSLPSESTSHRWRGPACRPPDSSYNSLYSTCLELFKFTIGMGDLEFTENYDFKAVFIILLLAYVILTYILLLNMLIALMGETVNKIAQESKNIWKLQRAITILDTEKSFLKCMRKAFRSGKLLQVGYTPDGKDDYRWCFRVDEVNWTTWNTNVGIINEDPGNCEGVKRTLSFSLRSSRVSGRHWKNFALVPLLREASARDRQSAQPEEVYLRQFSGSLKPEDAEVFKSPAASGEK

SMILES	IC50 [1, 3]	IC50 ([1]; Table 2)	remaining activity at 37.5 µM ([2]; Table 1)	remaining activity at 37.5 µM ([2]; Table 2)
O=C(Nc1cccc2[nH]ncc12)N[C@H]1CC[C@@H](c2ccccc2)C1 [Example 28, 1-(1H-indazol-4-yl)-3-[(1S,3R)-3-phenylcyclopentyl]urea]	64 nM	64 nM	41%	41%
Cn1ncc2c(NC(=O)N[C@@H]3CC[C@H](c4ccccc4)C3)cccc21 [Example 4, 1-(1-methyl-1H-indazol-4-yl)-3-[(1R,3S)-3-phenylcyclopentyl]urea]	18 nM	22 nM	37%	21%
Cc1cc2c(NC(=O)N[C@@H]3CC[C@H](c4ccccc4)C3)c(F)ccc2cn1 [Example 6, 1-(6-fluoro-3-methylisoquinolin-5-yl)-3-[(1R,3S)-3-phenylcyclopentyl]urea]	4 nM	4 nM	62%	62%

Results, then the compound that gave them:

IC50 [1, 3]	IC50 ([1]; Table 2)	remaining activity at 37.5 µM ([2]; Table 1)	remaining activity at 37.5 µM ([2]; Table 2)	SMILES
30 nM	30 nM	36%	36%	O=C(Nc1cccc2[nH]ncc12)N[C@H]1CC[C@H](c2ccccc2)C1 [Example 14, 1-(1H-indazol-4-yl)-3-[(1S,3S)-3-phenylcyclopentyl]urea]
20 nM	20 nM	8%	8%	O=C(Nc1cccc2[nH]ncc12)N[C@@H]1CC[C@@H](c2ccccc2)C1 [Example 21, 1-(1H-indazol-4-yl)-3-[(1R,3R)-3-phenylcyclopentyl]urea]
